Three molecules from PubChem BioAssay AID1259407 (Chemical Carcinogenesis Research Information System (CCRIS), 2018) can be followed below.

This data set deals with CCRIS mutagenicity, Ames/micronucleus/aberration tests. Put plainly: CCRIS mutagenicity studies.
[1] abbreviates: Test System: AMES SALMONELLA TYPHIMURIUM, Strain/Indicator: TA98, Metabolic Activation: NONE, Method: PREINCUBATION
The mark [2] stands for this setting: Test System: AMES SALMONELLA TYPHIMURIUM, Strain/Indicator: TA100, Metabolic Activation: NONE, Method: PREINCUBATION

Activity calls are given as the source filed them. No rule for the calls is given here.

Consider `CCOc1ccc(N=Nc2ccc(-c3ccc(N=Nc4c(O)ccc5cc(S(=O)(=O)O)cc(S(=O)(=O)O)c45)c(C)c3)cc2C)cc1`, for which the mutagenic call was “inactive; negative” (Test System: AMES SALMONELLA TYPHIMURIUM, Strain/Indicator: TA98, Metabolic Activation: HAMSTER, LIVER, S-9, AROCLOR 1254 (10%), Method: PREINCUBATION); “inactive; negative” under setting [1]; “inactive; negative” (Test System: AMES SALMONELLA TYPHIMURIUM, Strain/Indicator: TA98, Metabolic Activation: RAT, LIVER, S-9, AROCLOR 1254 (10%), Method: PREINCUBATION); “inactive; negative” (Test System: AMES SALMONELLA TYPHIMURIUM, Strain/Indicator: TA100, Metabolic Activation: HAMSTER, LIVER, S-9, AROCLOR 1254 (10%), Method: PREINCUBATION); “inactive; negative” under setting [2]; “inactive; negative” (Test System: AMES SALMONELLA TYPHIMURIUM, Strain/Indicator: TA100, Metabolic Activation: RAT, LIVER, S-9, AROCLOR 1254 (10%), Method: PREINCUBATION). For the same molecule, the mutagenic call reads like this: (Test System: AMES SALMONELLA TYPHIMURIUM, Strain/Indicator: TA1535, Metabolic Activation: HAMSTER, LIVER, S-9, AROCLOR 1254 (10%), Method: PREINCUBATION) “inactive; negative”; (Test System: AMES SALMONELLA TYPHIMURIUM, Strain/Indicator: TA1535, Metabolic Activation: NONE, Method: PREINCUBATION) “inactive; negative”; (Test System: AMES SALMONELLA TYPHIMURIUM, Strain/Indicator: TA1535, Metabolic Activation: RAT, LIVER, S-9, AROCLOR 1254 (10%), Method: PREINCUBATION) “inactive; negative”; (Test System: AMES SALMONELLA TYPHIMURIUM, Strain/Indicator: TA1537, Metabolic Activation: HAMSTER, LIVER, S-9, AROCLOR 1254 (10%), Method: PREINCUBATION) “inactive; negative”; (Test System: AMES SALMONELLA TYPHIMURIUM, Strain/Indicator: TA1537, Metabolic Activation: NONE, Method: PREINCUBATION) “inactive; negative”; (Test System: AMES SALMONELLA TYPHIMURIUM, Strain/Indicator: TA1537, Metabolic Activation: RAT, LIVER, S-9, AROCLOR 1254 (10%), Method: PREINCUBATION) “inactive; negative”. In addition, the mutagenic call (Test System: AMES SALMONELLA TYPHIMURIUM, Strain/Indicator: TA1538, Metabolic Activation: RAT, LIVER, S-9, AROCLOR 1254, Method: STANDARD PLATE) was “active; positive”.
Turning to `CC1=CC(=O)CC(C)(C)C1`, the mutagenic call (End Point: IN VITRO CHROMOSOMAL ABERRATIONS, Test System: CHINESE HAMSTER LUNG FIBROBLAST CELLS (CHL/IU), Metabolic Activation: RAT, LIVER, S-9, PHENOBARBITAL AND 5,6-BENZOFLAVONE) was “active; positive (structural changes)”; the mutagenic call (End Point: IN VITRO CHROMOSOMAL ABERRATIONS, Test System: CHO CELLS, Metabolic Activation: NONE) was “inactive; negative; precipitation occurred at 1600 ug/ml”; the mutagenic call (End Point: IN VITRO CHROMOSOMAL ABERRATIONS, Test System: CHO CELLS, Metabolic Activation: RAT, LIVER, S-9, AROCLOR 1254) was “inactive; negative”; the mutagenic call (Test System: AMES SALMONELLA TYPHIMURIUM, Strain/Indicator: TA98, Metabolic Activation: HAMSTER, LIVER, S-9, AROCLOR 1254, Method: STANDARD PLATE) was “inactive; negative”; the mutagenic call (Test System: AMES SALMONELLA TYPHIMURIUM, Strain/Indicator: TA98, Metabolic Activation: NONE, Method: STANDARD PLATE) was “inactive; negative”; the mutagenic call (Test System: AMES SALMONELLA TYPHIMURIUM, Strain/Indicator: TA98, Metabolic Activation: RAT, LIVER, S-9, AROCLOR 1254, Method: STANDARD PLATE) is “inactive; negative”. Moreover, the mutagenic call by setting is: (Test System: AMES SALMONELLA TYPHIMURIUM, Strain/Indicator: TA100, Metabolic Activation: HAMSTER, LIVER, S-9, AROCLOR 1254, Method: STANDARD PLATE) “inactive; negative”; (Test System: AMES SALMONELLA TYPHIMURIUM, Strain/Indicator: TA100, Metabolic Activation: NONE, Method: STANDARD PLATE) “inactive; negative”; (Test System: AMES SALMONELLA TYPHIMURIUM, Strain/Indicator: TA100, Metabolic Activation: RAT, LIVER, S-9, AROCLOR 1254, Method: STANDARD PLATE) “inactive; negative”; (Test System: AMES SALMONELLA TYPHIMURIUM, Strain/Indicator: TA1535, Metabolic Activation: HAMSTER, LIVER, S-9, AROCLOR 1254, Method: STANDARD PLATE) “inactive; negative”; (Test System: AMES SALMONELLA TYPHIMURIUM, Strain/Indicator: TA1535, Metabolic Activation: NONE, Method: STANDARD PLATE) “inactive; negative”; (Test System: AMES SALMONELLA TYPHIMURIUM, Strain/Indicator: TA1535, Metabolic Activation: RAT, LIVER, S-9, AROCLOR 1254, Method: STANDARD PLATE) “inactive; negative”. Besides, the mutagenic call (Test System: AMES SALMONELLA TYPHIMURIUM, Strain/Indicator: TA1537, Metabolic Activation: HAMSTER, LIVER, S-9, AROCLOR 1254, Method: STANDARD PLATE) was “inactive; negative”; the mutagenic call (Test System: AMES SALMONELLA TYPHIMURIUM, Strain/Indicator: TA1537, Metabolic Activation: NONE, Method: STANDARD PLATE) is “inactive; negative”; the mutagenic call (Test System: AMES SALMONELLA TYPHIMURIUM, Strain/Indicator: TA1537, Metabolic Activation: RAT, LIVER, S-9, AROCLOR 1254, Method: STANDARD PLATE) is “inactive; negative”; the mutagenic call (Test System: MOUSE LYMPHOMA, Strain/Indicator: L5178Y (TK+/TK-), Metabolic Activation: NONE, Method: MICROWELL) was “inactive; negative”; the mutagenic call (Test System: MOUSE LYMPHOMA, Strain/Indicator: L5178Y (TK+/TK-), Metabolic Activation: RAT, LIVER, S-9, AROCLOR 1242 AND AROCLOR 1254 (2:1), Method: SUSPENSION/PLATE) was “inactive; negative”; the mutagenic call (Test System: UDS RAT HEPATOCYTES, Strain/Indicator: BROMODEOXYURIDINE INCORP, Metabolic Activation: NONE, Method: FLOW CYTOMETRIC ANALYSIS) is “active; positive”. Also, the mutagenic call (Test System: UDS RAT HEPATOCYTES, Strain/Indicator: THY INCORP, Metabolic Activation: NONE, Method: AUTORADIOGRAPHY) is “active; positive”.
`CC(=O)Nc1ccc2ccccc2n1`: the mutagenic call is, setting by setting: under setting [1], “inactive; negative”; (Test System: AMES SALMONELLA TYPHIMURIUM, Strain/Indicator: TA98, Metabolic Activation: RAT, LIVER, S-9, KANECHLOR 500, Method: PREINCUBATION) “inactive; negative”; under setting [2], “inactive; negative”; (Test System: AMES SALMONELLA TYPHIMURIUM, Strain/Indicator: TA100, Metabolic Activation: RAT, LIVER, S-9, KANECHLOR 500, Method: PREINCUBATION) “inactive; negative”.
